Results taken from the OPERA property sets (Mansouri et al. 2018).

Details: for log10 BCF / log10 biotransformation half-life (days): fish

Compound	boiling point [°C]	melting point [°C]	also measured
Nc1cc(Cl)c(Cl)c(Cl)c1Cl	–	–	log10 Koc (L/kg): 3.03; log10 BCF: 2.21
c1ccc(CN2CCCCC2)cc1	245	–	–
CC1(C)OCC(CO)O1 (stereo unspecified)	–	–	log10 vapour pressure (mmHg): 2.03
CCC(=O)C(C)=O	108	–	–
Clc1ccc(Cl)c2ncccc12	–	97.5	–
OCC=Cc1ccccc1	–	33	log10 vapour pressure (mmHg): -1.62; ready biodegradability: readily biodegradable
Nc1cc(F)c(F)c(F)c1F	–	28	–
Nc1ccc(S(=O)(=O)c2ccc(NCCO)cc2)cc1	–	131	–
CCCC(CC)c1ccccc1 (stereo unspecified)	209	-55.4	–
CC(c1ccccc1)c1ccccc1	273	-17.9	log10 vapour pressure (mmHg): -1.85
NC(=O)c1ccc([N+](=O)[O-])cc1	–	200	log10 Koc (L/kg): 1.93
C1CC[C@H]2CCC[C@@H]2C1 (racemic)	167	-53	–
CCC(C)Cc1ccccc1 (stereo unspecified)	195	–	–
Cc1ccc(C(C)(C)C)c(O)c1	–	46.5	ready biodegradability: not readily biodegradable
CC[C@](C)(N)C(=O)O (racemic)	–	316	–
C[Si](Cl)(Cl)C(Cl)Cl	149	–	–
CC1(C)C2C=C[C@]1(C)CC2	146	113	–
CCCCCOC(=O)c1ccccc1C(=O)OCCCCC	342	–	–
C=CCCC(C)O (stereo unspecified)	139	–	–
Brc1ccc(Br)cc1	218	87.3	log10 Koa: 5.21; log10 vapour pressure (mmHg): -1.24; ready biodegradability: not readily biodegradable; log10 BCF: 2.21; log10 biotransformation half-life (days): 0.31
FC(F)(F)CC(F)(F)F	-1.1	-94.2	–
O=C(O)CCBr	–	62.5	–
COc1ccc(CO)cc1OC	298	–	–
C=Cc1ccccc1C=C	–	–	ready biodegradability: not readily biodegradable
CNC(=O)NC(C)=O	–	180	–
Cn1ccccc1=S	–	89.5	–
CCOc1ccc2nc(S(N)(=O)=O)sc2c1	–	189	–

Compound	boiling point [°C]	melting point [°C]	also measured
CC(C)OC(C)(C)C	87.6	-88	–
O=CCCl	85.5	-16.3	log10 vapour pressure (mmHg): 1.81
CC/C=C/C(C)C	85.9	-142	–
COC(C)(OC)OC	108	–	–
O=C1c2ccccc2C(=O)c2c1cccc2S(=O)(=O)O	–	–	ready biodegradability: not readily biodegradable
Cc1cc(N)c(S(=O)(=O)O)cc1Cl	–	–	ready biodegradability: not readily biodegradable
CCc1cccc(C(C)=O)c1	–	-20	log10 vapour pressure (mmHg): 0.357
FC(Cl)=C(Cl)Cl	71	-109	–
O=c1ccc2cc(Cl)ccc2o1	–	165	–
C1COCCN1	128	-4.9	log10 vapour pressure (mmHg): 1; ready biodegradability: not readily biodegradable; log10 BCF: 0.45
Clc1cc(Cl)c(Cl)c(Cl)c1Cl	277	86	log10 Henry constant (atm·m³/mol): -3.15; log10 Koa: 6.49; log10 Koc (L/kg): 3.5; log10 vapour pressure (mmHg): -3; ready biodegradability: not readily biodegradable; log10 BCF: 3.75; log10 biotransformation half-life (days): 1.87
COC(=O)c1cccc(C)c1S(=O)(=O)NC(=O)Nc1nc(OCC(F)(F)F)nc(N(C)C)n1	–	–	log10 Koc (L/kg): 1.84
CCC=CC(C)(C)C	103	–	–
C/C(=C\CNc1ncnc2[nH]cnc12)CO	–	208	–
O=C1CCCCCCCC1	–	34	–
CCOc1cccc(N(CC)CC)c1	286	–	–
CC(C)=O	55.8	-96.5	log10 Henry constant (atm·m³/mol): -4.46; log10 Koa: 2.31; log10 vapour pressure (mmHg): 2.36; ready biodegradability: readily biodegradable
Cc1ncc([N+](=O)[O-])n1C	–	138	–
C/C(=C\c1ccccc1)C(=O)O	–	80	log10 vapour pressure (mmHg): -3.04
Cc1ccc(O)c(N=Nc2ccccc2)c1	–	108	–
O=C1CCCCCCCN1	–	78	–
Cn1c(=O)n(C)c(=O)n(C)c1=O	274	176	–
CCNP(=S)(OC)O/C(C)=C/C(=O)OC(C)C (stereo unspecified)	–	–	log10 vapour pressure (mmHg): -4.84
COC(=O)c1cccc(C)c1	221	–	–
[C-]#[N+]C	59.6	-45	–
CCCCCCN	133	-22.9	log10 Henry constant (atm·m³/mol): -4.57; log10 vapour pressure (mmHg): 0.954; ready biodegradability: readily biodegradable
O=C(O)CNc1ccccc1	–	128	–
